Biological target: T1, T. maritima CopA (WT CopA) (Thermotoga maritima, UniProt Q9WYF3)
T1 sequence (Q9WYF3 1-726): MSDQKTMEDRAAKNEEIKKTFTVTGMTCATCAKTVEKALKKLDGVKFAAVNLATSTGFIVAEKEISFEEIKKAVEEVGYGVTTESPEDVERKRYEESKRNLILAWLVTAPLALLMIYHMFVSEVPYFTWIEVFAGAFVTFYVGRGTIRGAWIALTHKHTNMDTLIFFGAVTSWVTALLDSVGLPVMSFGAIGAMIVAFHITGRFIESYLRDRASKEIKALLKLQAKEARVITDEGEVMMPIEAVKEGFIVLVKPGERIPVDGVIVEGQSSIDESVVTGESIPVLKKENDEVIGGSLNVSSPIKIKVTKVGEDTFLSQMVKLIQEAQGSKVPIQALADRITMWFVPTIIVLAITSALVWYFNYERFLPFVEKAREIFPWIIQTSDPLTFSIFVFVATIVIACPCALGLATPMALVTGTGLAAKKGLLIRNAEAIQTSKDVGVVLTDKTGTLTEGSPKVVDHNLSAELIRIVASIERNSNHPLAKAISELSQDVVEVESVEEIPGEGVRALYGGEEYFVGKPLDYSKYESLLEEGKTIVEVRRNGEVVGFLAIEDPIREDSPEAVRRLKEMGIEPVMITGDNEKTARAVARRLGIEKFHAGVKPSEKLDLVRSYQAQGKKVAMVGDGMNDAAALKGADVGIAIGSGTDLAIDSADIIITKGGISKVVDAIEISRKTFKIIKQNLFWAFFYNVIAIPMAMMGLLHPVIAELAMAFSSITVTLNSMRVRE
Test: phosphoenzyme
Assay type: binding

Kd: 3.3 µM
SMILES: O=P(O)(O)O [Pi]
